From patent publication US20130281397A1, “TREATMENT OF DISEASES BY EPIGENETIC REGULATION” (RVX Therapeutics Inc., priority 2012, published 2013)

Legend:
Human AML MV-4-11 cells = assay: Inhibition of cell proliferation in human AML MV-4-11 cells; format: cell-based; design: key: Active: Compounds with an IC50 value less than 30 uM were deemed to be active; settings: 72 hours, CellTiter Aqueous One Solution, 30 uM to 0.2 μM
Description: MV4-11 cells: 96-well plates were seeded with 5×10^4 cells per well of exponentially growing human AML MV-4-11 (CRL-9591) cells and immediately treated with two-fold dilutions of test compounds, ranging from 30 uM to 0.2 μM. Triplicate wells were used for each concentration, as well as a media only and three DMSO control wells. The cells and compounds were incubated at 37° C., 5% CO2 for 72 hours before adding 20 μL of the CellTiter Aqueous One Solution (Promega) to each well and incubating at 37° C., 5% CO2 for an additional 3-4 hours. The absorbance was taken at 490 nm in a spectrophotometer and the percentage of proliferation relative to DMSO-treated cells was calculated after correction from the blank well. IC50 were calculated using the GraphPad Prism software.

Brd4 bromodomain 1 = molecular target: T1, Brd4 bromodomain 1 (Homo sapiens, UniProt O60885); assay: Inhibition of binding of tetra-acetylated histone H4 and Brd4 bromodomain 1 by TR-FRET; settings: His-tagged bromodomain 200 nM, biotinylated tetra-acetylated histone H4 peptide 25-50 nM, 2 hours at room temperature
T1 construct: made in house; host or cells: E. coli BL21(DE3)

c-myc = assay: Inhibition of c-myc expression (mRNA, real-time PCR) in MV4-11 cells; format: cell-based, Human; design: key: Active: Compounds with an IC50 value less than 30 μM were deemed to be active; settings: 3 hours at 37° C., duplex with cyclophilin
Description: MV4-11 cells (2.5×10^4 cells) were plated in 96 well U-bottom plates with test compound or DMSO (0.1%), and incubated for 3 hours at 37° C. Cells were then harvested by centrifugation, lysed, and mRNA was isolated using the mRNA catcher plus kit (Invitrogen). Reverse transcription of the mRNA and duplex amplification of the c-myc and cyclophilin cDNAs were performed using the RNA Ultrasense kit (Invitrogen) and a ViiA7 real-time PCR machine (Applied Biosystems). IC50 values were determined from a dose response curve.

COc1cc(OC)c2c(=O)n(C)c(-c3cc(C)c(O)c(C)c3)cc2c1 [Example 4, 3-(4-hydroxy-3,5-dimethylphenyl)-6,8-dimethoxy-2-methylisoquinolin-1(2H)-one]
cell proliferation activity (<30 uM) (Human AML MV-4-11 cells): Active | FRET activity (<50 uM) (Brd4 bromodomain 1): Active | c-myc activity (<30 uM) (c-myc): Active | melting point: 253 to 254 °C

COc1cc(OC)c2c(=O)[nH]c(-c3cc(C)c(O)c(C)c3)nc2c1 [Example 10, 2-(4-hydroxy-3,5-dimethylphenyl)-5,7-dimethoxyquinazolin-4(3H)-one]
cell proliferation activity (<30 uM) (Human AML MV-4-11 cells): Active | FRET activity (<50 uM) (Brd4 bromodomain 1): Active | c-myc activity (<30 uM) (c-myc): Active

COc1cc(OC)c2c(=O)[nH]c(-c3cc(C)c(OCCO)c(C)c3)nc2c1 [Example 16, 2-(4-(2-hydroxyethoxy)-3,5-dimethylphenyl)-5,7-dimethoxyquinazolin-4(3H)-one]
FRET activity (<50 uM) (Brd4 bromodomain 1): Active | c-myc activity (<30 uM) (c-myc): Active

COc1cc(OC)c2c(=O)[nH]c(-c3cc(C)c(OCCN4CCOCC4)c(C)c3)nc2c1 [Example 17, 2-(3,5-dimethyl-4-(2-morpholinoethoxy)phenyl)-5,7-dimethoxyquinazolin-4(3H)-one]
cell proliferation activity (<30 uM) (Human AML MV-4-11 cells): Active | FRET activity (<50 uM) (Brd4 bromodomain 1): Active

COc1cc(OC)c2c(=O)[nH]c(-c3ccc(N4CCN(C)CC4)cc3)nc2c1 [Example 38, 5,7-dimethoxy-2-(4-(4-methylpiperazin-1-yl)phenyl)quinazolin-4(3H)-one]
cell proliferation activity (<30 uM) (Human AML MV-4-11 cells): Active | FRET activity (<50 uM) (Brd4 bromodomain 1): Active | c-myc activity (<30 uM) (c-myc): Active

COc1cc2cc(-c3cc(C)c(O)c(C)c3)[nH]c(=O)c2c(OC)c1CN1CCOCC1 [Example 46, 3-(4-hydroxy-3,5-dimethylphenyl)-6,8-dimethoxy-7-(morpholinomethyl)isoquinolin-1(2H)-one]
cell proliferation activity (<30 uM) (Human AML MV-4-11 cells): Active | FRET activity (<50 uM) (Brd4 bromodomain 1): Active | c-myc activity (<30 uM) (c-myc): Active | melting point: 158 to 161 °C

Cc1cc(-c2nc3ccc(CN4CCOCC4)cc3c(=O)[nH]2)cc(C)c1O [Example 57, 2-(4-hydroxy-3,5-dimethylphenyl)-6-(morpholinomethyl)quinazolin-4(3H)-one]
cell proliferation activity (<30 uM) (Human AML MV-4-11 cells): Active | FRET activity (<50 uM) (Brd4 bromodomain 1): Active | c-myc activity (<30 uM) (c-myc): Active

COc1cc(OC)c2c(=O)[nH]c(-c3cc(C)c(OCC(=O)O)c(C)c3)nc2c1 [Example 59, 2-(4-(5,7-dimethoxy-4-oxo-3,4-dihydroquinazolin-2-yl)-2,6-dimethylphenoxy)acetic acid]
FRET activity (<50 uM) (Brd4 bromodomain 1): Active | c-myc activity (<30 uM) (c-myc): Inactive | melting point: 270 to 272 °C

COc1cc(OC)c2c(=O)[nH]c(-c3cc(C)c(OCCN4CCCC4)c(C)c3)nc2c1 [Example 67, 2-(3,5-dimethyl-4-(2-(pyrrolidin-1-yl)ethoxy)phenyl)-5,7-dimethoxyquinazolin-4(3H)-one]
cell proliferation activity (<30 uM) (Human AML MV-4-11 cells): Active | c-myc activity (<30 uM) (c-myc): Active

COc1cc2nc(-c3cc(C)c(O)c(C)c3)[nH]c(=O)c2c(OC)c1CN1CCOCC1 [Example 75, 2-(4-hydroxy-3,5-dimethylphenyl)-5,7-dimethoxy-6-(morpholinomethyl)quinazolin-4(3H)-one]
cell proliferation activity (<30 uM) (Human AML MV-4-11 cells): Active | FRET activity (<50 uM) (Brd4 bromodomain 1): Active | c-myc activity (<30 uM) (c-myc): Active | melting point: 237 to 239.1 °C

COc1cc(OC)c2c(=O)[nH]c(-c3cc(C)c(OCCNS(C)(=O)=O)c(C)c3)nc2c1 [Example 96, N-(2-(4-(5,7-dimethoxy-4-oxo-3,4-dihydroquinazolin-2-yl)-2,6-dimethylphenoxy)ethyl)methanesulfonamide]
cell proliferation activity (<30 uM) (Human AML MV-4-11 cells): Active | FRET activity (<50 uM) (Brd4 bromodomain 1): Active | c-myc activity (<30 uM) (c-myc): Inactive
